Test results published in patent US20210255168A1, “A METHOD OF PRECISION CANCER THERAPY” (KING FAISAL SPECIALIST HOSPITAL & RESEARCH CENTRE, priority 2018, published 2021).

Legend:
Type in all cases: cell-based
MDA-MB-231 cells [1] = assay: Proliferation assay (RTCA); conditions: MDA-MB-231, 300 nM, vs DMSO
Protocol: (§1) MDA-MB-231 cells were seeded in 6-well cell culture plates and incubated overnight. The cells were treated with the selected protein kinase inhibitors and incubated overnight. Then they were reseeded onto the invasion chamber in serum-free media at a density of 2×10^4 cells per well using 16-well CIM-Plate in Real-Time Cell Analysis (RTCA) Dual Plate (DP) Analyzer (ACEA Bioscinece, California, USA) that was loaded inside the incubator. The lower chambers to which cells will migrate were prepared to contain chemoattractant consisted of 10% FBS. For invasion assays, Matrigel (BioCoat, BD Biosciences, MA) which resembles the complex extracellular environment found in many tissues was prepared and used to coat the upper chamber of CIM plates. Invasion and migration were monitored continuously over 72-hour period using RTCA Software (ACEA Bioscinece, California, USA). The RTCA Instrument automatically monitors the cells every 15 minutes for 100 repetitions. For proliferation assays, the same principle was applied using a single chamber containing complete DMEM media (FIG. 10).
(§2) Based on the dose-response curve, 330 nM was selected to be used as a standard dose for the experiments. In the invasion assay, MDA-MB-231 cells were treated with volasertib or DMSO for 24 hr, then invasion was monitored for 30 hr.

MDA-MB-231 cells [2] = assay: Invasion assay (RTCA, Matrigel)
Protocol: as §1, §2

[3] = tested on: ARE-containing mRNAs (uPA, IL-8, SLC2A1, uPAR, CXCR4, MMP13, PDL1, HuR) in MDA-MB-231 cells; assay: RT-qPCR of ARE-containing cancer gene mRNAs; conditions: MDA-MB-231, 330 nM, 24 hr, vs DMSO
Protocol: Examples of the effect of several protein kinase inhibitors that were the outcome of the screen assay on one cancer gene, uPA, and a pro-inflammatory cytokine, IL-8 is given in FIG. 3.
(§3) These include IL-8, solute carrier family 2 member 1 (SLC2A1), uPA, uPAR, CXCR4, MMP13, PDL1, and HuR. The MDA-MB-231 cells were treated with 330 nM volasertib or DMSO for 24 hr, then quantitative RT-qPCR was performed in using FAM-labelled TaqMan probe of the above genes and normalized to GADPH (FIG. 11).
Cells were cultured in six-well plates and either treated with DMSO or drugs for 24 h. Total RNA was then extracted using Trizol reagent (TRI Reagent, Sigma-Aldrich, St Louis, Mo.). The cells were lysed directly on the culture dish by adding 1 ml of the TRI Reagent per 10 cm^2 surface area. […] The quantitative RT-QPCR was performed in multiplex in the Chroma 4 DNA Engine cycler (BioRad, Hercules, Calif., USA) using FAM-labelled TaqMan probes (Applied Biosystems, Foster City, Calif., USA) for TTP (ZFP36), HuR (ELAVL1), uPA (PLAU)-CXCR4, MMP-1, MMP-13, IL-8, PLK-1 while a VIC-labelled glyceraldehyde-3-phosphate dehydrogenase (GAPDH) probe was used as the endogenous control. Samples were amplified in triplicate and quantification of relative expression was performed using the estimation of quantitation cycle (Cq) method.

MDA-MB-231 cells [4] = assay: RNAseq analysis of global gene expression
Text: mRNA was extracted from DMSO- or volasertib-treated […]. cDNA libraries were made for sequencing a measure of transcript copy numbers that correspond to the abundance of each gene (FIG. 6A). […] Among those is 170 ARE-coding genes as derived by crossing with AU-rich element database. (FIG. 6B).

[5] = tested on: uPA mRNA in MDA-MB-231 cells; assay: mRNA half-life (Actinomycin D, one-phase exponential decay); conditions: MDA-MB-231, Actinomycin D 5 μg/ml; DMSO control >6 hr
Protocol: For half-life experiments, 5 μg/ml of Actinomycin D (ActD; Sigma-Aldrich, St Louis, Mo.) was added to the cells for 1, 2, 4 and 6 h prior to extraction of total RNA using Trizol. The reverse transcription reaction and quantitative PCR were performed as described above. The half-life of mRNAs was estimated using the one-phase exponential decay method using GraphPad Prism software (GraphPad Software, San Diego, Calif.).
To study the influence of PLK-1 inhibition on ARE-containing mRNA stability, the effect of volasertib treatment on the half-life of uPA was analyzed. Half-life of uPA mRNA was reduced from >6 hr to 0.5 hr in response to volasertib treatment compared to the DMSO control (FIG. 12C). […] Compatible with the findings of the inventors, the higher the level of PLK-1, the lower the TTP expression.

[6] = tested on: HuR mRNA in MDA-MB-231 cells; assay: qPCR for HuR mRNA expression; conditions: MDA-MB-231, 24 h, vs DMSO
Protocol: Cells were cultured in six-well plates and either treated with DMSO or drugs for 24 h. Total RNA was then extracted using Trizol reagent (TRI Reagent, Sigma-Aldrich, St Louis, Mo.). The cells were lysed directly on the culture dish by adding 1 ml of the TRI Reagent per 10 cm^2 surface area. Reverse transcription for preparation of cDNA was performed using 3 μg of total RNA, 150 ng random primers, 0.1 M dithiothreitol (DTT), 10 mM deoxynucleotide triphosphate (dNTP) and 200 U of SuperScript II (Invitrogen, Foster City, Calif.). The quantitative RT-QPCR was performed in multiplex in the Chroma 4 DNA Engine cycler (BioRad, Hercules, Calif., USA) using FAM-labelled TaqMan probes (Applied Biosystems, Foster City, Calif., USA) for TTP (ZFP36), HuR (ELAVL1), uPA (PLAU)-CXCR4, MMP-1, MMP-13, IL-8, PLK-1 while a VIC-labelled glyceraldehyde-3-phosphate dehydrogenase (GAPDH) probe was used as the endogenous control. Samples were amplified in triplicate and quantification of relative expression was performed using the estimation of quantitation cycle (Cq) method.
To study the influence of PLK-1 inhibition on ARE-containing mRNA stability, the effect of volasertib treatment on the half-life of uPA was analyzed. Half-life of uPA mRNA was reduced from >6 hr to 0.5 hr in response to volasertib treatment compared to the DMSO control (FIG. 12C). […]

PD-1L = PD-1L expression; conditions: FIG. 18
Protocol: FIG. 18: Volasertib reduces PD-1L expression.
as §3

[7] = tested on: TNF-α-ARE luciferase reporter in MDA-MB-231 cells; assay: Post-transcriptional ARE luciferase reporter assay (kinase inhibitor library screen); conditions: 0.5, 2 and 5 μM, ARE and non-ARE reporters

SMILES: CC[C@@H]1C(=O)N(C)c2cnc(Nc3ccc(C(=O)N[C@H]4CC[C@H](N5CCN(CC6CC6)CC5)CC4)cc3OC)nc2N1C(C)C [volasertib]
- proliferation (MDA-MB-231 cells [1]): significantly reduced
- invasive behavior (MDA-MB-231 cells [2]; MDA-MB-231 treated 24 hr, monitored 30 hr, vs DMSO): reduced invasive behavior
- time at which the effect on invasion started (MDA-MB-231 cells [2]; after treatment): 6 h
- expression of all ARE-containing cancer genes (IL-8, SLC2A1, uPA, uPAR, CXCR4, MMP13, PDL1, HuR) [3]: significantly reduced
- number of ARE-coding genes among the down-regulated genes (MDA-MB-231 cells [4]; crossed with AU-rich element database): 170 genes
- number of genes down-regulated by at least 1.7-fold (MDA-MB-231 cells [4]; p<0.001, vs DMSO): 540 genes
- half-life of uPA mRNA [5]: 30 min
- reduction of HuR mRNA expression [6]: 60%
- PD-1L expression (PD-1L): reduces
- ARE-dependent mRNA regulation confirmed in later stages of screening compared to a non-ARE reporter [7]: confirmed to be involved in ARE-dependent mRNA regulation
